Laboratory results taken from US5677349A, “Agmatine for the treatment of neurotrauma and neurodegenerative diseases” (priority 1995, dated 1997).
Structures can show the parent of a compound that is named as a salt. Where two headings read alike, the source gives them in different places.

Columns and labels:
[1] = system: nerve cell survival after NMDA neurotoxic challenge; experiment: Reversal of N-methyl-D-aspartate induced cell death in culture; conditions: for Percent Protection: after NMDA, survival minus NMDA effect
Protocol: The cerebellum is aseptically dissociated from 6 or 7-day old rat pups and placed in a 15 ml sterile plastic conical tube containing 3 ml of Dulbecco's modified Eagle's medium containing high glucose concentration ([…]), 2 Mm (v/v) L-glutamine and an antibiotic mixture. The cerebella are then dissociated after 20-25 passages through a sterile 13 gauge, 10 cm long stainless steel needle attached to a 5 ml syringe with an inserted 45 micrometer pore nylon sieve. The dissociated cells are centrifuged at 200 g for 5 minutes. The supernatant is discarded and the cells resuspended in medium enriched with 15% (v/v) heat inactivated fetal calf serum. Cell viability is determined by the trypan blue exclusion test.
Cells are plated at a density of 200/mm^2 on poly-L-lysine coated surfaces which are prepared at least one hour in advance of plating by covering the surfaces (plastic Petri dishes or glass coverslips) with sterile distilled water solution containing 15 micrograms/ml poly-L-lysine, and washing in sterile water just prior to use. The plated cells are covered with enriched medium and incubated at 37° C. in an atmosphere of 5% CO2 in air and 97% humidity. After three days in culture, the media is replaced with media containing the desired compound. Each compound is tested in duplicate and each experiment repeated at least once.
Four groups were run in each set of experiments:
1. Control, consisting of cells grown in enriched media alone;
2. N-methyl-D-aspartate (NMDA, 1 Mm for 3 hours) as the cytotoxic challenge;
3. Test compound added after the NMDA challenge;
4. Positive control, spermine or spermidine (0.01 μM) after NMDA.
The number of surviving cells was examined 24 hours after the challenge. Surviving cells in culture are measured relative to control (100%) as described above. Percent Protection is the cell survival for the test compound minus the NMDA effect. […] The Effective Protection value was calculated as the percent of the Percent Protection (X) divide by the maximal protection value (e.g. X×100/70).

[2] = system: ischemia-induced nerve cell death; conditions: gerbils; Gilad et al. 1989, 1991, 1992; cited from earlier work
[3] = Effect on nerve cell survival and toxicity in culture (dissociated neonatal rat cerebellum); format: cell-based; conditions: rat, cerebellar nerve cells
Protocol: (§1) A concentration-dependent (dose-response) effect on nerve cell survival was determined for each compound at a concentration range of 0.001-5000 micromolar (μM). The compounds were added to 3-day-old cultures and the effect was examined 24 hours later.
(§2) Nerve cell survival was evaluated by phase contrast microscopy and trypan blue exclusion staining.
(§3) The results, summarized in Table 1, show the compound concentrations at which 20% or more cells survived (Survival) relative to controls, and at which 50% of the cells died (TD50) when compared to controls. Control cultures were grown in enriched medium alone and represent 100% values.

[4] = system: pyramidal neurons of the CA1 layer of the anterior hippocampus; experiment: animal or person; format: in vivo
Protocol: Male mongolian gerbils, aged 2.5-5 months, housed 4-8 in a cage, are supplied freely with food and water and maintained at 24° C. with a 12 hour day/night cycle. For surgery, the animals are anesthetized with halothane (1.5% in 100% O2) and the common carotid arteries exposed bilaterally through a midline ventral neck incision. Each artery is clamped for 5 minutes with aneurysm clips to produce global brain ischemia. The anesthesia is discontinued upon clamping. After 5 minutes the clamps are removed and the wound closed with skin clips
For treatment, the test compound or saline (0.9% NaCl, vehicle) are injected intraperitoneally (ip) in a volume of 50 microliters of solvent per 10 g body weight. The first injection is given 5 minutes after clamp removal, and thereafter daily for the next 2 post-operative days (total of 3 injections).
Four general groups, each of 4-8 animals were compare:
1. Control (sham, or unoperated and vehicle treated);
2. Ischemia, untreated or vehicle treated;
3. Ischemia, test compound treated, one sub-group per concentration tested;
4. Ischemia and pentobarbital (40 mg/kg) as positive control.
Analysis of neuronal damage was performed 14 days post-ischemia by counting pyramidal neurons throughout the CA1 layer of the anterior hippocampus in 4 micrometer thick (paraffin) coronal brain sections, stained with hematoxylin eosin. Values of cell numbers in the hippocampi of individual gerbils were expressed as percent of intact controls (control cell counts were 275±25 cells/mm^2).
Percent Protection values represent the fraction of hippocampi protected from ischemia in a group of animals treated with the stated dose of compound.

[5] = system: nerve cell survival; experiment: Effect on nerve cell survival and toxicity in culture (dissociated neonatal rat cerebellum); format: cell-based; conditions: 24 hours
Protocol: as §1, §2, §3

[6] = system: intracellular imidazoline receptors; conditions: background; cited from earlier work
[7] = system: cell proliferation; experiment: Toxicity and cell proliferation, general statement; format: cell-based
[8] = animals; background; cited from earlier work
[9] = system: NMDA receptors; conditions: background; cited from earlier work
[10] = system: nicotine receptors; conditions: background; cited from earlier work
[11] = system: ADP-ribosylation of proteins; conditions: acts as ADP-ribose acceptor; background; cited from earlier work
[12] = Rattus norvegicus, 24 h, read-out: Effective Protection
[13] = Rattus norvegicus, 24 h, read-out: Surviving Cells in Culture
[14] = TD50 (concentration at which 50% of the cells died)
[15] = Meriones unguiculatus, Pyramidal neuron, ip, 336 h, read-out: Percent Protection
[16] = 24 hours, 3-day-old cultures, read-out: TD50 (concentration at which 50% of the cells died)

Row | SMILES | Percent Protection ([1]; 0.01 μM) [%] | inhibition at 0.01 µM [1, 12] [%] | viability at 0.01 µM [1, 13] [%] | CC50 at 24 h [3, 14] [µM] | responders at 10 mg/kg [4, 15] [%] | CC50 at 24 h [3, 16] [µM] | Percent Protection ([1]; 10 μM) [%] | inhibition at 10 µM [1, 12] [%] | viability at 10 µM [1, 13] [%] | Percent Protection ([1]; 50 μM) [%] | inhibition at 50 µM [1, 12] [%] | viability at 50 µM [1, 13] [%] | also measured
1 | NCCCCN [Putrescine] | 0 | 0 | 30 | 300 | 35 | – | – | – | – | – | – | – | Percent Protection ([1]; 0.005 μM): 2%; inhibition at 0.005 µM [1, 12]: 3%; viability at 0.005 µM [1, 13]: 32%; Effect against ischemia-induced nerve cell death [2]: protecting against ischemia-induced nerve cell death in gerbils
2 | NCCCNCCCCNCCCN1c2ccccc2Sc2ccc(Cl)cc21 [G103, 2-chloro-N-[3-(8-spermidinyl)]-10H-Phenothiazine-10-propanamine.3 HCl] | 25 | 36 | 55 | – | – | 2 | – | – | – | – | – | – | Percent Protection ([1]; 0.10 μM): 2%; Percent Protection ([1]; 1 μM): -10%; inhibition at 0.1 µM [1, 12]: 3%; viability at 0.1 µM [1, 13]: 32%; viability at 1 µM [1, 13]: 20%; lethality ([4]; 0.50 mg/kg ip, ischemic gerbils, n=5): lethal; responders at 0.01 mg/kg [4, 15]: 42%; responders at 0.1 mg/kg [4, 15]: 55%
3 | C1CN2CCC1CC2 [Quinuclidine] | – | – | – | – | 15 | 100 | 10 | 14 | 40 | – | – | – | Percent Protection ([1]; 1 μM): 5%; inhibition at 1 µM [1, 12]: 7%; viability at 1 µM [1, 13]: 35%
4 | Cl.Cl.NCCCCNCCCN1c2ccccc2Sc2ccc(Cl)cc21 [G102, 2-chloro-N-(4-aminobutyl)-10H-Phenothiazine-10-propanamine-2HCl] | – | – | – | – | – | – | – | – | – | 5 | 7 | 35 | Percent Protection ([1]; 1 μM): 40%; Percent Protection ([1]; 250 μM): 65%; inhibition at 1 µM [1, 12]: 57%; inhibition at 250 µM [1, 12]: 93%; viability at 1 µM [1, 13]: 70%; viability at 250 µM [1, 13]: 95%; Shape of dose-response curve for nerve cell survival [5]: U-shaped dose-response curve; toxic ([4]; 10 mg/kg ip, ischemic gerbils, n=10): 70%; responders at 1 mg/kg [4, 15]: 40%; responders at 5 mg/kg [4, 15]: 70%
5 | C1C2CC3CC1CC(C2)C3 [Adamantane] | – | – | – | 1000 | – | – | 13 | 19 | 43 | 20 | 29 | 50 | responders at 50 mg/kg [4, 15]: 23%
6 | N=C(N)NCCCCN [Agmatine, agmatine] | – | – | – | – | 20 | 500 | 35 | 50 | 65 | 51 | 73 | 81 | Interaction with intracellular imidazoline receptors [6]: interaction with membrane receptors; Toxicity [7]: relatively non-toxic; Cell proliferation ([7]; at some concentrations): accelerates cell proliferation; Insulin-like effects [8]: produces insulin-like effects in animals; responders at 50 mg/kg [4, 15]: 50%; responders at 100 mg/kg [4, 15]: 75%; Interaction with NMDA receptors [9]: interaction with membrane receptors; Interaction with nicotine receptors [10]: interaction with membrane receptors; Effect on ADP-ribosylation of proteins [11]: inhibit ADP-ribosylation of proteins
7 | CNC1(C)C2CCC(C2)C1(C)C (centres unmarked) [Mecamylamine] | – | – | – | 500 | 40 | – | – | – | – | – | – | – | Percent Protection ([1]; 25 μM): 37%; inhibition at 25 µM [1, 12]: 53%; viability at 25 µM [1, 13]: 67%
8 | NCCCNCCCCNCCCN [Spermine] | 38 | 54 | 68 | – | 65 | – | – | – | – | – | – | – | Percent Protection ([1]; 0.005 μM): -5%; viability at 0.005 µM [1, 13]: 25%; Effect against ischemia-induced nerve cell death [2]: protecting against ischemia-induced nerve cell death in gerbils; CC50 at 24 h [3]: 2 µM
9 | Clc1ccc2c(c1)Nc1ccccc1S2 [2-Cl-phenothiazine] | – | – | – | 5 | 65 | – | 15 | 21 | 45 | 32 | 46 | 62 | –
10 | NCCCCNCCCN [Spermidine] | 48 | 69 | 78 | – | 50 | 2 | – | – | – | – | – | – | Percent Protection ([1]; 0.005 μM): 0%; inhibition at 0.005 µM [1, 12]: 0%; viability at 0.005 µM [1, 13]: 30%; Effect against ischemia-induced nerve cell death [2]: protecting against ischemia-induced nerve cell death in gerbils
11 | CCCC(C)C1(CC)C(=O)NC(=O)NC1=O (centres unmarked) [Pentobarbital, pentobarbital] | – | – | – | – | – | – | – | – | – | – | – | – | responders at 40 mg/kg ([4]; Meriones unguiculatus, Pyramidal neuron, 336 h, read-out: Percent Protection): 87%
